US6680323B2, “Dihydropyrimidines and uses thereof” (Synaptic Pharmaceutical Corporation, priority 1998, dated 2004)
Counter-ions that a name gives are not always drawn.

Columns and labels:
human α2b receptor = molecular target: T1, human α2b receptor (Homo sapiens, UniProt P18089); assay: Competition binding ([3H]rauwolscine) at cloned human α2b receptor; conditions: transfected LM(tk−) cells, [3H]rauwolscine 0.5 nM; read-out: Binding affinity hα2b
T1 construct: expressed in transfected cells
T1 sequence (P18089 1-450): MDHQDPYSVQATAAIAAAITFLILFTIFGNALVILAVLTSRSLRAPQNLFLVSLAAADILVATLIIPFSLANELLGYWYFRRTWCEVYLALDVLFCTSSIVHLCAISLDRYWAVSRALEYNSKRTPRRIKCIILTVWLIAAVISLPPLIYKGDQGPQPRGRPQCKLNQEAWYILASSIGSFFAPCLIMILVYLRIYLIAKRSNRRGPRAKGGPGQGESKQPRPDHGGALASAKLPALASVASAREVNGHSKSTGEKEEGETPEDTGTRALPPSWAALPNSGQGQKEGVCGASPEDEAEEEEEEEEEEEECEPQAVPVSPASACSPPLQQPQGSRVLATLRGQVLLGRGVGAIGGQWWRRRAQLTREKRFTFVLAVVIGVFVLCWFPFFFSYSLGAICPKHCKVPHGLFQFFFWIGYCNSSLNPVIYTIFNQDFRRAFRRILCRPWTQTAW
Excerpt: (§1) α2 Human Adrenergic Receptors
(§2) To determine the potency of α1 antagonists at the α2 receptors, LM(tk−) cell lines stably transfected with the genes encoding the α2a, α2b, and α2c receptors were used. The cell line expressing the α2a receptor is designated L-α2A, and was deposited on Nov. 6, 1992 under ATCC Accession No. CRL 11180. The cell line expressing the α2b receptor is designated L-NGC-α2B, and was deposited on Oct. 25, 1989 under ATCC Accession No. CRL10275. The cell line expressing the α2c receptor is designated L-α2C, and was deposited on Nov. 6, 1992 under ATCC Accession No. CRL-11181. All the cell lines were deposited with the American Type Culture Collection, 12301 Parklawn Drive, Rockville, Md. 20852, U.S.A. under the provisions of the Budapest Treaty for the International Recognition of the Deposit of Microorganisms for the Purposes of Patent Procedure. Cell lysates were prepared as described above (see Radioligand Binding Assays), and suspended in 25 mM glycylglycine buffer (pH 7.6 at room temperature). Equilibrium competition binding assay were performed using [3H]rauwolscine (0.5 nM), and nonspecific binding was determined by incubation with 10 μM phentolamine. The bound radioligand was separated by filtration through GF/B filters using a cell harvester.

human α2c receptor = molecular target: T2, human α2c receptor (Homo sapiens, UniProt P18825); assay: Competition binding ([3H]rauwolscine) at cloned human α2c receptor; conditions: transfected LM(tk−) cells, [3H]rauwolscine 0.5 nM; read-out: Binding affinity hα2c
T2 construct: expressed in transfected cells
T2 sequence (P18825 1-462): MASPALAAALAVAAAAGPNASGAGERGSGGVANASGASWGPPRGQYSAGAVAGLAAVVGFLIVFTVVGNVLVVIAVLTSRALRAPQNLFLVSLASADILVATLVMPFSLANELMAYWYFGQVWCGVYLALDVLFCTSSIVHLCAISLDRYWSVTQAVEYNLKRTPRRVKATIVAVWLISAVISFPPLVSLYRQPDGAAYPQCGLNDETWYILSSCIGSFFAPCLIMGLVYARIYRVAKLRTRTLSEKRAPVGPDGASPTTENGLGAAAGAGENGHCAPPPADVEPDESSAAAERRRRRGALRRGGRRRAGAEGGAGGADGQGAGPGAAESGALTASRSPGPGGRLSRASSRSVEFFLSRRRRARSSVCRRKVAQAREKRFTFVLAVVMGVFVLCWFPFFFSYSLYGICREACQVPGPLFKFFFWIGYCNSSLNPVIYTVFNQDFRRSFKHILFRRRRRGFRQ
Excerpt: as §1, §2

SMILES | Ki (human α2b receptor) | Ki (human α2c receptor)
O=C1OCC2=C1C(c1ccc(F)c(F)c1)N(C(=O)NCCCN1CCC(c3ccccn3)CC1)C(=O)N2 (single isomer, unassigned; (+)) [Compound 8, (+)-1-3-{[4-(3,4-Difluorophenyl)-2,5-dioxo-1,2,5,7-tetrahydro-4H-furo[3,4-d]-pyrimidine-3-carbonyl]amino}-propyl-4-(2-pyridyl)-piperidine] | 0.97 µM | 1.5 µM
COCC1=C(C(=O)OC)[C@H](c2ccc(F)c(F)c2)N(C(=O)NCCCO)C(=O)N1 [Compound 1, (+)-1,2,3,6-Tetrahydro-1-(3-hydroxypropyl)carboxamido-5-methoxycarbonyl-4-methoxymethyl-6-(3,4-difluorophenyl)-2-oxo-pyrimidine] | 26 µM | > 50 µM
COCC1=C(C(=O)OC)[C@H](c2ccc(F)c(F)c2)N(C(=O)NCCCN2CCC(c3cccc[n+]3[O-])CC2)C(=O)N1 [Compound 2, (+)-1,2,3,6-Tetrahydro-1-{N-[4-(2-pyridyl)piperidin-1-yl]propyl}carboxamido-5-methoxycarbonyl-4-methoxymethyl-6-(3,4-difluorophenyl)-2-oxopyrimidine-pyridine-N-oxide hydrochloride] | 8.7 µM | 1.5 µM
COCC1=C(C(=O)OC)[C@H](c2ccc(F)c(F)c2)N(C(=O)NCCC[n+]2ccc(-c3ccccn3)cc2)C(=O)N1 [Compound 3, 4-(2-Pyridyl)-1-{3-[5-carboxymethyl-4-methoxymethyl-2-oxo-6(S)-(3,4-difluorphenyl)-1,2,3,6-tetrahydropyrimidin-1-yl]carboxyaminopropyl}pyridinium chloride] | 9.66 µM | 3.39 µM
COC(=O)C1=C(CO)NC(=O)N(C(=O)NCCCN2CCC(c3ccccn3)CC2)[C@H]1c1ccc(F)c(F)c1 [Compound 7, (+)-1,2,3,6-Tetrahydro-1-{N-[4-(2-pyridyl)piperidin-1-yl]propyl}carboxamido-5-methoxycarbonyl-4-hydroxymethyl-6-(3,4-difluorophenyl)-2-oxopyrimidine] | 1.2 µM | 0.26 µM
O=C(O)CCNC(=O)N1C(=O)NC2=C(C(=O)OC2)[C@@H]1c1ccc(F)c(F)c1 [Compound 9] | > 50 µM | > 50 µM
